Results published in patent publication EP0642504B1 (priority 1991, dated 1993).
Marks after values point to notes of the source that are not given here.

Legend:
[1] = test system: PAF-Induced Paw Edema; assay: PAF-induced paw edema (water displacement); type: in vivo, CD-1 female mice; settings: oral, 15 min after PAF (1.0 µg s.c.), vs vehicle treated controls
Experimental: A second model, in which edema is induced by platelet activating factor (PAF), was used to evaluate activity.
(§1) The conditions were based on those reported previously [Calhoun et al., ibid.]. […] PAF (1.0 µg) or arachidonic acid (1.0 mg) dissolved in 50 µl of 5% ethanol in saline, were injected s.c. into the plantar surface of the right hind paw of CD-1 female mice (20-25 g) obtained from Charles River Labs. The mice were under ether anesthesia during this procedure. The volume of the right foot was measured to the level of the lateral malleous by water displacement before treatment and 15 min after PAF injection or 30 min after archidonate injection. The change in paw volume was calculated for each mouse and the significance for each group was determined by a paired t test analysis.

[2] = test system: forebrain ischemia (unilateral occlusion); assay: Forebrain ischemia (unilateral occlusion); type: in vivo; settings: mongolian gerbils
Excerpt: (§2) The present compounds are active in several tests generally used to indicate neuroprotection.

[3] = Solubility in the oocyte test medium; type: physicochemical
Experimental: Several NMDA receptor blockers were tested. These compounds have very low solubility and have to be dissolved in 100% dimethyl sulfoxide (DMSO) and diluted for use in ND 96 that contained 1% DMSO. Therefore, the effect of 1% DMSO on the response to 10-^4 M NMDA and 5x10-^6 M glycine was examined. DMSO had no effect on NMDA response in three different cells.
The effect of HU-245 was reversible upon return to ND 96 solution.

[4] = test system: N-methyl-D-aspartate (NMDA) induced lethality; assay: Protection against NMDA induced lethality; type: in vivo, Balb/c male mice; settings: 90 min before NMDA (125 mg/kg) s.c., no drug 0/20
Excerpt: as §2

[5] = test system: peritoneal leukocytes; assay: Leukocyte adhesion assay, peritoneal cells collected after oral dosing; type: in vivo, CD-1 mice; settings: cells collected 90 min after administration; for number of adhering cells x 10^-6 ± S.D.: 18-20 hours incubation
Experimental: Leukocytes are thought to be major contributors to the inflammatory response and their ability in this regard is reflected by their adhesiveness to a variety of substrates [Audette, C.A., et al., Life Sci., 47, 753 (1990)].
The details of the leukocytes adhesion assay have been previously reported [Audette et al., ibid.]. In brief, peritoneal cells from femals CD-1 mice (20-25 g) were collected at 90 min following oral administration of the drug or vehicle (50 µl peanut oil). Cells from each treatment group (N=3) were pooled and equal numbers aliquoted into six culture dish wells (1.9 cm^2 area). After incubation for 18-20 hours, non-adhering cells were removed and the remaining cell monolayer quantitated by DNA measurement.

[6] = test system: Arachidonic Acid-Induced Paw Edema; assay: Arachidonic acid-induced paw edema (water displacement); type: in vivo, CD-1 female mice; settings: oral, 30 min after arachidonic acid (1.0 mg s.c.), vs vehicle treated controls
Experimental: The induction of paw edema in rodents by injection of arachidonic acid has been used as an experimental model for inflammation [Calhoun, W., et al., Agents and Actions, 21, 306 (1987)]. Prior administration of non-steroidal anti-inflammatory drugs (NSAIDs) in many cases leads to a dose related inhibition of the edematous response which may be considered a predictor of clinical efficacy.
as §1

[7] = test system: picrotoxin induced lethality; assay: Protection against picrotoxin induced lethality; type: in vivo, Balb/c male mice; settings: drug 10 mg/kg, 120 min before picrotoxin (8 mg/kg) s.c.; no drug 0/17
Excerpt: as §2

[8] = test system: strychnine induced lethality; assay: Protection against strychnine induced lethality; type: in vivo; settings: rats
Excerpt: as §2

[9] = test system: mouse; assay: Ring test for cataleptic effects; type: in vivo; settings: 5-min test period, vehicle 7.7 ± 4.4
Experimental: The lack of CNS activity for the compounds described herein may be seen from the data shown in Table V. This was measured by the so-called "ring test" [Pertwee, R.G., et al., J. Pharmacol., 46, 753 (1972)] in which the cataleptic effects of cannabinoids can be quantitated. The compounds produced little or no response when compared with the parent drug.
The cataleptic response was measured using the ring test. Mice were placed on a horizontal wire ring 5.5 cm in diameter, which was attached to a 16 cm vertical rod. The hind paws and fore paws were placed at opposite sides of the ring. It is important that the ambient temperature is maintained at 30°C and that the environment be free of auditory stimuli and bright lights. The criteria for immobility are detailed by Pertwee. The response is calculated as the fraction of time the mouse is immobile over a 5-min test period. Measurements were always done between 2 and 4 p.m. and the animals were used only once.

[10] = test system: mouse; assay: Mouse hot plate test (55°C) for antinociception; type: in vivo
Experimental: In the hot plate test for analgesia an aluminum surface was maintained at 55 ± 1°C by circulating water through passages in the metal. A clear plastic cylinder 18 cm in diameter and 26 cm high was placed on the surface to prevent escape. The end point was taken when the mouse either performed a hind paw lick or jumped off the surface; in no case were the animals kept for more than 30 secs on the plate. Mice were never used more than one time; control values were always measured at 11 a.m. and test values at 2 p.m. The drugs were administered orally 90 min before the hot plate test. The percent change in response time (latency) was calculated by comparing the mean of the control values with the mean of the test values and statistical signficance determined by a paired t-test analysis using software (Statview, 512) from Brainpower, Inc., Calabasas, Ca.

[11] = test system: intraocular pressure; assay: Reduction of intraocular pressure (anti-glaucoma activity); type: in vivo, rabbits; settings: 50 µl drop of a 1% emulsion into the rabbit eye
Experimental: Reduction of intraocular pressure in rabbits was determined by the addition of a 50 µl drop of a 1% emulsion of the cannabinoid into the rabbit eye. This test is a measure of anti-glaucomatic activity.

## CCCCCCC(C)(C)c1cc(OC(C)=O)c2c(c1)OC(C)(C)[C@H]1CC=C(C(=O)O)C[C@H]21 [HU-245, (3S,4S)-THC-DMH-7-oic acid, acetate]
[1]; dose 0.10 mg/kg
  percent inhibition of paw edema: 37.3* percent
[1]; dose 0.25 mg/kg
  percent inhibition of paw edema: 66.9* percent
[1]; dose 0.5 mg/kg
  percent inhibition of paw edema: 72.0* percent
[2]
  protection against forebrain ischemia: protect against forebrain ischemia
[3]
  solubility compared with prior art compounds: higher than that of prior art compounds
[3]; nd 96 with 1% dmso, organic solvent or mixture, ND 96 containing 1% DMSO, read-out: solubility (soluble at a concentration of up to)
  solubility: ≤ 0.1 µM
[4]; drug 2.5 mg/kg
  Survival rate (number of survivors out of total number of animals used): 6/12
[4]; drug 10 mg/kg
  Survival rate (number of survivors out of total number of animals used): 8/10
[5]; dose 0.05 mg/kg oral
  adhering cells, percent of control: 105% of control
  number of adhering cells x 10^-6 ± S.D.: 1.32±0.04 x 10^-6
[5]; dose 0.10 mg/kg oral
  adhering cells, percent of control: 52% of control
  number of adhering cells x 10^-6 ± S.D.: 0.66±0.05 x 10^-6
[5]; dose 0.50 mg/kg oral
  adhering cells, percent of control: 67% of control
  number of adhering cells x 10^-6 ± S.D.: 0.85±0.08 x 10^-6
[5]; dose 1.00 mg/kg oral
  adhering cells, percent of control: 24% of control
  number of adhering cells x 10^-6 ± S.D.: 0.30±0.04 x 10^-6
[6]; dose 0.050 mg.kg
  percent inhibition of paw edema: 35.7 (N.S.) percent
[6]; dose 0.100 mg.kg
  percent inhibition of paw edema: 50.1* percent
[6]; dose 0.250 mg.kg
  percent inhibition of paw edema: 48.2* percent
[6]; dose 0.55 mg.kg
  percent inhibition of paw edema: 42.2 (N.S.) percent
[7]
  Survival rate (number of survivors out of total number of animals used): 5/8
[8]
  protection against strychnine induced lethality: protects against strychnine induced lethality
[9]; dose 0.5 mg/kg
  Response ± SD (means of the fraction of time the mice remained immobile): 6.8 ± 2.4
[9]; dose 1.0 mg/kg
  Response ± SD (means of the fraction of time the mice remained immobile): 12.0 ± 6.0
[10]; dose 0.025 mg/kg orally 90 min before the hot plate test
  percent change in latency: 10.7(5) percent
[10]; dose 0.050 mg/kg orally 90 min before the hot plate test
  percent change in latency: 66.2(5)* percent
[10]; dose 0.10 mg/kg orally 90 min before the hot plate test
  percent change in latency: 62.2(5)* percent
[10]; dose 0.25 mg/kg orally 90 min before the hot plate test
  percent change in latency: 68.1(10)* percent
[10]; dose 0.50 mg/kg orally 90 min before the hot plate test
  percent change in latency: 49.9(5)* percent
[10]; dose 1.0 mg/kg orally 90 min before the hot plate test
  percent change in latency: 12.5(5) percent
[11]
  Reduction of intraocular pressure: Significant reduction
